Laboratory results published in ChEMBL document CHEMBL3885881, “DrugMatrix”.

Species: Rattus norvegicus
Assay: DrugMatrix - Regimen: Daily Repeat
Format: toxicity, organism-based, Sprague-Dawley
Set-up: regimen Daily Repeat, gender Male, age 6-8 weeks
Details: in vivo, iv, vehicle 100 % SALINE; for ABSOLUTE BASOPHIL / ABSOLUTE EOSINOPHIL / ABSOLUTE LYMPHOCYTE / ABSOLUTE MONOCYTE / ABSOLUTE SEGMENTED NEUTROPHIL / BASOPHIL / EOSINOPHIL / ERYTHROCYTE COUNT / HEMATOCRIT / HEMOGLOBIN / LEUKOCYTE COUNT / LYMPHOCYTE / MEAN CORPUSCULAR HEMOGLOBIN / MEAN CORPUSCULAR HEMOGLOBIN CONCENTRATION / MEAN CORPUSCULAR VOLUME / MONOCYTE / NEUTROPHIL / NUCLEATED RED BLOOD CELLS / PLATELET COUNT: tissue Blood; for ALANINE AMINOTRANSFERASE / ALBUMIN / ALKALINE PHOSPHATASE / ASPARTATE AMINOTRANSFERASE / BLOOD UREA NITROGEN / CARBON DIOXIDE / CHLORIDE / CHOLESTEROL / CREATINE PHOSPHOKINASE / CREATININE / GLUCOSE / LACTATE DEHYDROGENASE / LIPASE / PHOSPHORUS / POTASSIUM / SODIUM / TOTAL BILIRUBIN / TOTAL PROTEIN / URIC ACID: tissue Plasma
[1] = 0.08 mg/kg, 120 h, dose level Low, time 5 day
[2] = 0.3 mg/kg, 72 h, dose level High, time 3 day
[3] = 0.3 mg/kg, 120 h, dose level High, time 5 day

SMILES: CC[C@]1(O)C[C@@H]2CN(CCc3c([nH]c4ccccc34)[C@@](C(=O)OC)(c3cc4c(cc3OC)N(C)[C@H]3[C@@](O)(C(=O)OC)[C@H](OC(C)=O)[C@]5(CC)C=CCN6CC[C@]43[C@@H]65)C2)C1 [VINBLASTINE]
- ABSOLUTE BASOPHIL [1]: 0 CELLS/uL
- ABSOLUTE EOSINOPHIL [1]: 0 CELLS/uL
- ABSOLUTE LYMPHOCYTE [1]: 7180.33 CELLS/uL
- ABSOLUTE MONOCYTE [1]: 26.33 CELLS/uL
- ABSOLUTE SEGMENTED NEUTROPHIL [1]: 293.33 CELLS/uL
- BASOPHIL [1]: 0%
- EOSINOPHIL [1]: 0%
- ERYTHROCYTE COUNT [1]: 5.15 x10E6/uL
- HEMATOCRIT [1]: 32.43%
- HEMOGLOBIN [1]: 13 G/DL
- LEUKOCYTE COUNT [1]: 7.5 x10E3/uL
- LYMPHOCYTE [1]: 95.67%
- MEAN CORPUSCULAR HEMOGLOBIN [1]: 25.27 pg
- MEAN CORPUSCULAR HEMOGLOBIN CONCENTRATION [1]: 40.07 G/DL
- MEAN CORPUSCULAR VOLUME [1]: 63.1 fL
- MONOCYTE [1]: 0.33%
- NEUTROPHIL [1]: 4%
- NUCLEATED RED BLOOD CELLS [1]: 0 /100WBC
- PLATELET COUNT [1]: 1437 x10E3/uL
- ALANINE AMINOTRANSFERASE [1]: 44 u/L
- ALBUMIN [1]: 3.93 G/DL
- ALKALINE PHOSPHATASE [1]: 340.67 u/L
- ASPARTATE AMINOTRANSFERASE [1]: 88.67 u/L
- BLOOD UREA NITROGEN [1]: 16.67 mg/dL
- CARBON DIOXIDE [1]: 28 mmol/L
- CHLORIDE [1]: 101.33 MEQ/L
- CHOLESTEROL [1]: 69.67 mg/dL
- CREATINE PHOSPHOKINASE [1]: 599 u/L
- CREATININE [1]: 0.2 mg/dL
- GLUCOSE [1]: 212 mg/dL
- LACTATE DEHYDROGENASE [1]: 334.67 u/L
- LIPASE [1]: 10.67 u/L
- PHOSPHORUS [1]: 13.3 mg/dL
- POTASSIUM [1]: 5.71 MEQ/L
- SODIUM [1]: 141.27 MEQ/L
- TOTAL BILIRUBIN [1]: 0.2 mg/dL
- TOTAL PROTEIN [1]: 5.83 G/DL
- URIC ACID [1]: 1.77 mg/dL
- ABSOLUTE BASOPHIL [2]: 0 CELLS/uL
- ABSOLUTE EOSINOPHIL [2]: 0 CELLS/uL
- ABSOLUTE LYMPHOCYTE [2]: 5650.33 CELLS/uL
- ABSOLUTE MONOCYTE [2]: 34.67 CELLS/uL
- ABSOLUTE SEGMENTED NEUTROPHIL [2]: 381.67 CELLS/uL
- BASOPHIL [2]: 0%
- EOSINOPHIL [2]: 0%
- ERYTHROCYTE COUNT [2]: 4.96 x10E6/uL
- HEMATOCRIT [2]: 31.5%
- HEMOGLOBIN [2]: 12.67 G/DL
- LEUKOCYTE COUNT [2]: 6.07 x10E3/uL
- LYMPHOCYTE [2]: 93%
- MEAN CORPUSCULAR HEMOGLOBIN [2]: 25.5 pg
- MEAN CORPUSCULAR HEMOGLOBIN CONCENTRATION [2]: 40.23 G/DL
- MEAN CORPUSCULAR VOLUME [2]: 63.4 fL
- MONOCYTE [2]: 0.67%
- NEUTROPHIL [2]: 6.33%
- NUCLEATED RED BLOOD CELLS [2]: 0 /100WBC
- PLATELET COUNT [2]: 588.33 x10E3/uL
- ALANINE AMINOTRANSFERASE [2]: 129 u/L
- ALBUMIN [2]: 4.03 G/DL
- ALKALINE PHOSPHATASE [2]: 429 u/L
- ASPARTATE AMINOTRANSFERASE [2]: 337.67 u/L
- BLOOD UREA NITROGEN [2]: 15 mg/dL
- CARBON DIOXIDE [2]: 31 mmol/L
- CHLORIDE [2]: 102 MEQ/L
- CHOLESTEROL [2]: 104 mg/dL
- CREATINE PHOSPHOKINASE [2]: 645 u/L
- CREATININE [2]: 0.16 mg/dL
- GLUCOSE [2]: 167.33 mg/dL
- LACTATE DEHYDROGENASE [2]: 246.33 u/L
- LIPASE [2]: 10.67 u/L
- PHOSPHORUS [2]: 11.6 mg/dL
- POTASSIUM [2]: 5.31 MEQ/L
- SODIUM [2]: 144.2 MEQ/L
- TOTAL BILIRUBIN [2]: 0.47 mg/dL
- TOTAL PROTEIN [2]: 5.83 G/DL
- URIC ACID [2]: 1.07 mg/dL
- ABSOLUTE BASOPHIL [3]: 0 CELLS/uL
- ABSOLUTE EOSINOPHIL [3]: 11.33 CELLS/uL
- ABSOLUTE LYMPHOCYTE [3]: 4520 CELLS/uL
- ABSOLUTE MONOCYTE [3]: 22.67 CELLS/uL
- ABSOLUTE SEGMENTED NEUTROPHIL [3]: 46 CELLS/uL
- BASOPHIL [3]: 0%
- EOSINOPHIL [3]: 0.33%
- ERYTHROCYTE COUNT [3]: 5.7 x10E6/uL
- HEMATOCRIT [3]: 34.73%
- HEMOGLOBIN [3]: 13.5 G/DL
- LEUKOCYTE COUNT [3]: 4.6 x10E3/uL
- LYMPHOCYTE [3]: 98%
- MEAN CORPUSCULAR HEMOGLOBIN [3]: 23.7 pg
- MEAN CORPUSCULAR HEMOGLOBIN CONCENTRATION [3]: 38.87 G/DL
- MEAN CORPUSCULAR VOLUME [3]: 61.03 fL
- MONOCYTE [3]: 0.67%
- NEUTROPHIL [3]: 1%
- NUCLEATED RED BLOOD CELLS [3]: 0.33 /100WBC
- PLATELET COUNT [3]: 95.67 x10E3/uL
- ALANINE AMINOTRANSFERASE [3]: 423.33 u/L
- ALBUMIN [3]: 3.6 G/DL
- ALKALINE PHOSPHATASE [3]: 438.67 u/L
- ASPARTATE AMINOTRANSFERASE [3]: 923 u/L
- BLOOD UREA NITROGEN [3]: 14.67 mg/dL
- CARBON DIOXIDE [3]: 33 mmol/L
- CHLORIDE [3]: 96 MEQ/L
- CHOLESTEROL [3]: 192.33 mg/dL
- CREATINE PHOSPHOKINASE [3]: 622.67 u/L
- CREATININE [3]: 0.1 mg/dL
- GLUCOSE [3]: 121 mg/dL
- LACTATE DEHYDROGENASE [3]: 415 u/L
- LIPASE [3]: 10.67 u/L
- PHOSPHORUS [3]: 10.6 mg/dL
- POTASSIUM [3]: 5.16 MEQ/L
- SODIUM [3]: 141.4 MEQ/L
- TOTAL BILIRUBIN [3]: 5.67 mg/dL
- TOTAL PROTEIN [3]: 5.83 G/DL
- URIC ACID [3]: 0.7 mg/dL
